Assays:
[1] = molecular target: T1, Dual specificity tyrosine-phosphorylation-regulated kinase 2 (Homo sapiens, UniProt Q92630); assay: Inhibition of human full length recombinant DYRK2 using casein substrate by radiometric scintillation assay
T1 sequence (Q92630 whole entry): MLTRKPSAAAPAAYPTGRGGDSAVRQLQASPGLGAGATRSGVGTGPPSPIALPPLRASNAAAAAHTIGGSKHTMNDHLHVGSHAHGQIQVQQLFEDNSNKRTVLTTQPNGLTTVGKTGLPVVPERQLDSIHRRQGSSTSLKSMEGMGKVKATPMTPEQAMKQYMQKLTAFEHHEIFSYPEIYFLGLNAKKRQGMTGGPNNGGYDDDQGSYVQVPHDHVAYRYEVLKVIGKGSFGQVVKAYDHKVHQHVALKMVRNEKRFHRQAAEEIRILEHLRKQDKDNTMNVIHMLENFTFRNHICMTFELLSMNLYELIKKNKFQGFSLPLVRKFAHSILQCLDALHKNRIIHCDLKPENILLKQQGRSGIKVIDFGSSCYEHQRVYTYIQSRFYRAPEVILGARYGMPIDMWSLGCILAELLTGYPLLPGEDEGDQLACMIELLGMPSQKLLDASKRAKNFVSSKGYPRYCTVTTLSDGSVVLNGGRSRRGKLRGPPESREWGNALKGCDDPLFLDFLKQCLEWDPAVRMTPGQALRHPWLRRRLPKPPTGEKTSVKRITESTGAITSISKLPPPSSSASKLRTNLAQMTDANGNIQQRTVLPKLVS

[2] = molecular target: Cyclin-dependent kinase-like 3 (Homo sapiens, UniProt Q8IVW4); assay: Inhibition of CDKL3 (unknown origin) by NanoBRET cellular target engagement assay
[3] = molecular target: T2, Dual specificity tyrosine-phosphorylation-regulated kinase 1B (Homo sapiens, UniProt Q9Y463); assay: Inhibition of DYRK1B (unknown origin) by NanoBRET cellular target engagement assay
T2 sequence (Q9Y463 whole entry): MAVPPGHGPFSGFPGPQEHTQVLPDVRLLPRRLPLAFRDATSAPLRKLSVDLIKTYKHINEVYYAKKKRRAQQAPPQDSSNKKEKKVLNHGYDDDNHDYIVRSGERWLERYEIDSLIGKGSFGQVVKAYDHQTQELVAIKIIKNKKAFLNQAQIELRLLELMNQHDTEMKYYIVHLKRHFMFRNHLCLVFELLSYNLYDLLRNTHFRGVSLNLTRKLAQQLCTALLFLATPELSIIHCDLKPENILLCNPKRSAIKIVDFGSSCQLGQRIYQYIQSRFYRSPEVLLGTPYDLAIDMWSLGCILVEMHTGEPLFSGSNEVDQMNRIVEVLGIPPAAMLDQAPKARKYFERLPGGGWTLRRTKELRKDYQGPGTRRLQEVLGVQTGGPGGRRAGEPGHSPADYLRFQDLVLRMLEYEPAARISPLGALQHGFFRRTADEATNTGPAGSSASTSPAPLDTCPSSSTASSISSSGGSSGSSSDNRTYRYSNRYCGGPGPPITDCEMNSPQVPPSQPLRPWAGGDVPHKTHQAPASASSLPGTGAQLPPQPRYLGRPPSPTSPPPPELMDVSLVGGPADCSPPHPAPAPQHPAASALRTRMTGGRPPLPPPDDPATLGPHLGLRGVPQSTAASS

[4] = molecular target: T3, Dual specificity tyrosine-phosphorylation-regulated kinase 1A (Homo sapiens, UniProt Q13627); assay: Inhibition of DYRK1A (unknown origin) by NanoBRET cellular target engagement assay
[5] = molecular target: T4, Dual specificity protein kinase CLK4 (Homo sapiens, UniProt Q9HAZ1); assay: Inhibition of CLK4 (unknown origin) by NanoBRET cellular target engagement assay
T4 sequence (Q9HAZ1 whole entry): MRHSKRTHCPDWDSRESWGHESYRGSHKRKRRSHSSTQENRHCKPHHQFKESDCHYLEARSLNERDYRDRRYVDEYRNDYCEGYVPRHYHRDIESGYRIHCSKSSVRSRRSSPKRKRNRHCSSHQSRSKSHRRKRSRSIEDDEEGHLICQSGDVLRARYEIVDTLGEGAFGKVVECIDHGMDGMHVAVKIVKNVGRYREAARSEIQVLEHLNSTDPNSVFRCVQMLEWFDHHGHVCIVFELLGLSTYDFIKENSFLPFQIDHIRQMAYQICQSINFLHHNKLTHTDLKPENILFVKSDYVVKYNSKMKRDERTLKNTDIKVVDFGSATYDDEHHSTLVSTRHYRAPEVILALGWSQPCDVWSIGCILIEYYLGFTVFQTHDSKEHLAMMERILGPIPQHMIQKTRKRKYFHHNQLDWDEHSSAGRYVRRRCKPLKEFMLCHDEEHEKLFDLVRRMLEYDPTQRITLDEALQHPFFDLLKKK

[6] = molecular target: T5, Homeodomain-interacting protein kinase 1 (Homo sapiens, UniProt Q86Z02); assay: Inhibition of human recombinant HIPK1 using myelin substrate by radiometric scintillation assay
T5 sequence (Q86Z02 whole entry): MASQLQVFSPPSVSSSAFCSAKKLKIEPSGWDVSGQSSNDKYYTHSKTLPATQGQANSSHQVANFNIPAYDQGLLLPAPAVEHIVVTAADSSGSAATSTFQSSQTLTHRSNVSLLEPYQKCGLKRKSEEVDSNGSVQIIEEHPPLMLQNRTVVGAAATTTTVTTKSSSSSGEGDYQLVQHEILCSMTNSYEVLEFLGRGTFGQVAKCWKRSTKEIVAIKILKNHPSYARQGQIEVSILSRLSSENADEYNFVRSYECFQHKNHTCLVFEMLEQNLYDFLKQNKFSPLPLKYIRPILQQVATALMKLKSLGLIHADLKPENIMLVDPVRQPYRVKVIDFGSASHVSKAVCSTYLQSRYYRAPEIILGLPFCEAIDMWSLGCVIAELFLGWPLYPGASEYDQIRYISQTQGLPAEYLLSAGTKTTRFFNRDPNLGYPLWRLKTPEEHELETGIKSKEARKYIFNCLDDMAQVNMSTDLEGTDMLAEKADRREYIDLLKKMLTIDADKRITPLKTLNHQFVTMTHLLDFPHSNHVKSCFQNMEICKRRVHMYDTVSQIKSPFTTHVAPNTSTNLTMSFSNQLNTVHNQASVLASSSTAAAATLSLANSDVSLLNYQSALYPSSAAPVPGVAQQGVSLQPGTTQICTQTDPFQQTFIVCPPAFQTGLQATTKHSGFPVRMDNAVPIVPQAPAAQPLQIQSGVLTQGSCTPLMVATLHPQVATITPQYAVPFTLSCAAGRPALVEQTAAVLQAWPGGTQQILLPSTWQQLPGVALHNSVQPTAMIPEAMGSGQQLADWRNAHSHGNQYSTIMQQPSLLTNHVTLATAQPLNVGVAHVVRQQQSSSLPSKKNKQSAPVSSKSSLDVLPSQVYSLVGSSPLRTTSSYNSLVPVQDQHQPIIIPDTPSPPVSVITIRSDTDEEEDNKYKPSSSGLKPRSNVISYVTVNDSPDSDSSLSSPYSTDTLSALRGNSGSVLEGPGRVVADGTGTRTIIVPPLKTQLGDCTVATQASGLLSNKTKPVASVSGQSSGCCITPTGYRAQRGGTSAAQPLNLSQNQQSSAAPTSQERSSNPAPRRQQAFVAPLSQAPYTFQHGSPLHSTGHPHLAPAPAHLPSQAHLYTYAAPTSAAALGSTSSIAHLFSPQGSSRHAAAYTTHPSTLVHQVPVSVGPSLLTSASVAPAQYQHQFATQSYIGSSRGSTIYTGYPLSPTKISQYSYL

[7] = molecular target: T6, Dual specificity protein kinase CLK1 (Homo sapiens, UniProt P49759); assay: Inhibition of CLK1 (unknown origin) by NanoBRET cellular target engagement assay
T6 sequence (P49759 whole entry): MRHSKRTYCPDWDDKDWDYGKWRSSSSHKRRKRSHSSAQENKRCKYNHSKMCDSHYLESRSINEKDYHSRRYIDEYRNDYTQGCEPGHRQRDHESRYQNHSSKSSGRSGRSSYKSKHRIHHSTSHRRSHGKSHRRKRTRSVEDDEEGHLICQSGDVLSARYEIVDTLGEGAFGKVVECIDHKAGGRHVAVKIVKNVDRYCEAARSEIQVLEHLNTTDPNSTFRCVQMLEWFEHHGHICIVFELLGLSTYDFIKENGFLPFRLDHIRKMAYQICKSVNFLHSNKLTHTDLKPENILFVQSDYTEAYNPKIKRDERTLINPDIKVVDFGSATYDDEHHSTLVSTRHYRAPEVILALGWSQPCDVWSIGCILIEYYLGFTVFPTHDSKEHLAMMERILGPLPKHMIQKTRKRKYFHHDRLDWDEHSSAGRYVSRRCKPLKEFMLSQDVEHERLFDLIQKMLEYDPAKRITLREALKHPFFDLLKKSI

[8] = molecular target: T4, Dual specificity protein kinase CLK4; assay: Inhibition of human recombinant CLK4 using YRRAAVPPSPSLS substrate by radiometric scintillation assay
[9] = molecular target: T7, Dual specificity protein kinase CLK3 (Homo sapiens, UniProt P49761); assay: Inhibition of human full length recombinant CLK3 using ERMRPRKRQGSVR substrate by radiometric scintillation assay
T7 sequence (P49761 whole entry): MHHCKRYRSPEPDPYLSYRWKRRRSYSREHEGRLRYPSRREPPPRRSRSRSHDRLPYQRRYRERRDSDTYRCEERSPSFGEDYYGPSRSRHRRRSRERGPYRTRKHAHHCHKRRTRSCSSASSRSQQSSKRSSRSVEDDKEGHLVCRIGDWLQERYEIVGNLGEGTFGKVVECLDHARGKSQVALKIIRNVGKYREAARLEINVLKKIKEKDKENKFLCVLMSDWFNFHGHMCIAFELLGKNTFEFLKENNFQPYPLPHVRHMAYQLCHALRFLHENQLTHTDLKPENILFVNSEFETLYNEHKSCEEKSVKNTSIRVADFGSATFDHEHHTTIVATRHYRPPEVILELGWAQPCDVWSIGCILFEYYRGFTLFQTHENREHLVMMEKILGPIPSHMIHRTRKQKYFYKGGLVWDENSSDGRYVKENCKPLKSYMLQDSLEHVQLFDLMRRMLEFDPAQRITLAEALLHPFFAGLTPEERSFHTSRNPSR

[10] = molecular target: T8, Dual specificity protein kinase CLK2 (Homo sapiens, UniProt P49760); assay: Inhibition of CLK2 (unknown origin) by NanoBRET cellular target engagement assay
T8 sequence (P49760 whole entry): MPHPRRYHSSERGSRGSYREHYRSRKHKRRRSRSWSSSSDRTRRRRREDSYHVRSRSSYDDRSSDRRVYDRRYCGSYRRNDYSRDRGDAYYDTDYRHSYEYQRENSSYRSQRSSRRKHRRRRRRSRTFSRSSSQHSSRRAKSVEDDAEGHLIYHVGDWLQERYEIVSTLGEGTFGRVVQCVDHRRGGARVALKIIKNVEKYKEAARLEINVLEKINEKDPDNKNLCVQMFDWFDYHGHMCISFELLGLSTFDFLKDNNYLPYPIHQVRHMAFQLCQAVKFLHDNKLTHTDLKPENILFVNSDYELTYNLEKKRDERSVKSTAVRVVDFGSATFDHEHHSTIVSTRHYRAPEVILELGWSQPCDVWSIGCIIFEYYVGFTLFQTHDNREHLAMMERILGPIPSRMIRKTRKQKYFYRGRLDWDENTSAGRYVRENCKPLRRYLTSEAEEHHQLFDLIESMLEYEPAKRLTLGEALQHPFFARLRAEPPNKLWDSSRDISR

[11] = molecular target: T9, Homeodomain-interacting protein kinase 3 (Homo sapiens, UniProt Q9H422); assay: Inhibition of human recombinant HIPK3 using myelin substrate by radiometric scintillation assay
T9 sequence (Q9H422 whole entry): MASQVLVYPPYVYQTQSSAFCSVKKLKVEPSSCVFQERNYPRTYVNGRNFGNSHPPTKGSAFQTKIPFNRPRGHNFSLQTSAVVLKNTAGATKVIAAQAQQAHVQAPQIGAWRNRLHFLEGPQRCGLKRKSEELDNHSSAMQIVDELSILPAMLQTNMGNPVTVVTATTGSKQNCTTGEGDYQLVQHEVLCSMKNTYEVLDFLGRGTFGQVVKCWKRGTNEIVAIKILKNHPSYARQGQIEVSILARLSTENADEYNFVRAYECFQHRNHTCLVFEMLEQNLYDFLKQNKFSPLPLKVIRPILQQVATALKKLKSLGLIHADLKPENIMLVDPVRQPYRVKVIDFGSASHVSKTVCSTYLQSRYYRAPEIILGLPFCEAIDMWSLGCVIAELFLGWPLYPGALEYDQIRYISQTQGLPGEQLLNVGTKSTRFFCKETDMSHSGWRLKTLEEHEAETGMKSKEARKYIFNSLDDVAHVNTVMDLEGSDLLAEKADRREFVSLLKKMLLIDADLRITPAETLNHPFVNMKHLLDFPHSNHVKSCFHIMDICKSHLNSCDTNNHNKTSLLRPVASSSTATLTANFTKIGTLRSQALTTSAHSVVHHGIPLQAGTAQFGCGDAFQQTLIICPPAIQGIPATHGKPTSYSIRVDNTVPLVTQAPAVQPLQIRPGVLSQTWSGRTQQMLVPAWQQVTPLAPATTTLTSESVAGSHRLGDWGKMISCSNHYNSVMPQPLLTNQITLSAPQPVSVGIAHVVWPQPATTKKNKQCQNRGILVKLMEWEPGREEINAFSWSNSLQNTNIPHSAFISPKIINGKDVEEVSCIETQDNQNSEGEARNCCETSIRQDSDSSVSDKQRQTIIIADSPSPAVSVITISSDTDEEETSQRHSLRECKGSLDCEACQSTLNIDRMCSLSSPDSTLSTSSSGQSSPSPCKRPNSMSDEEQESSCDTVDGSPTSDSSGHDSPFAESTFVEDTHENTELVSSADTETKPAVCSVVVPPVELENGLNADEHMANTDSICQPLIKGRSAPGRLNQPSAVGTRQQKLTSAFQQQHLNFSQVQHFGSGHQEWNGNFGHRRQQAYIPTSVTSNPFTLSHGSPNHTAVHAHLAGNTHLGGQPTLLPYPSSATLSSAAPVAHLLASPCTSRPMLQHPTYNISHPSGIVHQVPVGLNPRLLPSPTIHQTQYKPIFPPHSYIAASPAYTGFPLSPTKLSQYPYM

[12] = molecular target: T2, Dual specificity tyrosine-phosphorylation-regulated kinase 1B; assay: Inhibition of human full length recombinant DYRK1B using RRRFRPASPLRGPP substrate by radiometric scintillation assay
[13] = molecular target: T10, Homeodomain-interacting protein kinase 2 (Homo sapiens, UniProt Q9H2X6); assay: Inhibition of human recombinant HIPK2 using myelin substrate by radiometric scintillation assay
[14] = molecular target: Mitogen-activated protein kinase kinase kinase 9 (Homo sapiens, UniProt P80192); assay: Inhibition of MLK1 (unknown origin) by NanoBRET cellular target engagement assay
[15] = molecular target: T8, Dual specificity protein kinase CLK2; assay: Inhibition of human recombinant CLK2 using YRRAAVPPSPSLSR substrate by radiometric scintillation assay
[16] = molecular target: T7, Dual specificity protein kinase CLK3; assay: Inhibition of CLK3 (unknown origin) by NanoBRET cellular target engagement assay
[17] = molecular target: Mitogen-activated protein kinase kinase kinase 11 (Homo sapiens, UniProt Q16584); assay: Inhibition of MLK3 (unknown origin) by NanoBRET cellular target engagement assay
[18] = molecular target: T1, Dual specificity tyrosine-phosphorylation-regulated kinase 2; assay: Inhibition of DYRK2 (unknown origin) by NanoBRET cellular target engagement assay
[19] = molecular target: T3, Dual specificity tyrosine-phosphorylation-regulated kinase 1A; assay: Inhibition of human full length recombinant DYRK1A using RRRFRPASPLRGPP substrate by radiometric scintillation assay
[20] = molecular target: T6, Dual specificity protein kinase CLK1; assay: Inhibition of human recombinant CLK1 using ERMRPRKRQGSVR substrate by radiometric scintillation assay
[21] = molecular target: Mitogen-activated protein kinase kinase kinase 10 (Homo sapiens, UniProt Q02779); assay: Inhibition of MLK2 (unknown origin) by NanoBRET cellular target engagement assay
[22] = molecular target: T9, Homeodomain-interacting protein kinase 3; assay: Inhibition of HIPK3 (unknown origin)
[23] = molecular target: T11, Homeodomain-interacting protein kinase 4 (Homo sapiens, UniProt Q8NE63); assay: Inhibition of HIPK4 (unknown origin)
T11 sequence (Q8NE63 whole entry): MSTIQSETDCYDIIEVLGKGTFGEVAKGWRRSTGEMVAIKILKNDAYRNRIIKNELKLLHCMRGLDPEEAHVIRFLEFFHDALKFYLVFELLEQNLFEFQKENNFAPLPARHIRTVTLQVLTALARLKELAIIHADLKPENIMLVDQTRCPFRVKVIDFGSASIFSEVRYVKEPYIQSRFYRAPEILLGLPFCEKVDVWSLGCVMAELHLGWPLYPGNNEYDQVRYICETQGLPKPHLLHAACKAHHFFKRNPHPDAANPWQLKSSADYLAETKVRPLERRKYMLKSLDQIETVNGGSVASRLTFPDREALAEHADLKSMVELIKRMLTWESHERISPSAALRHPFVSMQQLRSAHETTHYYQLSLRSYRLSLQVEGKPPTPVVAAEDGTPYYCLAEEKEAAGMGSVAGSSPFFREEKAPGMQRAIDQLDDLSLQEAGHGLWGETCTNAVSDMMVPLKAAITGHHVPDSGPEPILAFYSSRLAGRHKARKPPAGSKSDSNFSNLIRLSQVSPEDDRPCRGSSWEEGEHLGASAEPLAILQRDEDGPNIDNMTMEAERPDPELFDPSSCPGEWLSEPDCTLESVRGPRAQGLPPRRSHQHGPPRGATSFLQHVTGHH

[24] = molecular target: T5, Homeodomain-interacting protein kinase 1; assay: Inhibition of HIPK1 (unknown origin)
[25] = molecular target: T10, Homeodomain-interacting protein kinase 2; assay: Inhibition of HIPK2 (unknown origin) by selectscreen kinase assay
[26] = molecular target: T10, Homeodomain-interacting protein kinase 2; assay: Inhibition of HIPK2 (unknown origin)

SMILES: CC(C)(C)c1ccc(-c2coc3ccc(-c4cn[nH]c4)nc23)cc1
- IC50 [1]: > 3 µM
- IC50 [2]: > 50 µM
- IC50 [3]: > 50 µM
- IC50 [4]: 43 µM
- IC50 [5]: 46 µM
- IC50 [6]: 0.248 µM
- IC50 [7]: > 50 µM
- IC50 [8]: 1.47 µM
- IC50 [9]: > 3 µM
- IC50 [10]: 18 µM
- IC50 [11]: 0.476 µM
- IC50 [12]: > 3 µM
- IC50 [13]: 0.119 µM
- IC50 [14]: > 50 µM
- IC50 [15]: 1.43 µM
- IC50 [16]: 43 µM
- IC50 [17]: > 50 µM
- IC50 [18]: > 50 µM
- IC50 [19]: > 3 µM
- IC50 [20]: 0.946 µM
- IC50 [21]: > 50 µM

SMILES: Cc1[nH]c(/C=C2\C(=O)Nc3ccc(S(=O)(=O)Cc4c(Cl)cccc4Cl)cc32)c(C)c1C(=O)N1CCC[C@@H]1CN1CCCC1 [PHA-665752]
- IC50 [22]: 0.1 µM
- IC50 [23]: 0.1 µM
- IC50 [24]: 0.1 µM

SMILES: CC(C)(C)c1ccc(-c2coc3ccc(-c4cn[nH]n4)nc23)cc1
- IC50 [1]: > 3 µM
- IC50 [2]: > 50 µM
- IC50 [3]: > 50 µM
- IC50 [4]: > 50 µM
- IC50 [5]: 40 µM
- IC50 [6]: 0.285 µM
- IC50 [7]: > 50 µM
- IC50 [8]: > 3 µM
- IC50 [9]: > 3 µM
- IC50 [10]: > 50 µM
- IC50 [11]: 0.283 µM
- IC50 [12]: > 3 µM
- IC50 [13]: 0.123 µM
- IC50 [14]: 15 µM
- IC50 [15]: > 3 µM
- IC50 [16]: > 50 µM
- IC50 [17]: > 50 µM
- IC50 [18]: > 50 µM
- IC50 [19]: > 3 µM
- IC50 [20]: > 3 µM
- IC50 [21]: > 50 µM

SMILES: O=C1NC(=O)/C(=C\c2c[nH]c(=O)c(-c3ccc(N4CCNCC4)nc3)c2)S1
- IC50 [25]: 0.074 µM

SMILES: COc1cc2c(Oc3ccc(NC(=O)C4(C(=O)Nc5ccc(F)cc5)CC4)cc3F)ccnc2cc1OCCCN1CCOCC1 [FORETINIB]
- IC50 [22]: 0.1 µM
- IC50 [26]: 0.1 µM

— ChEMBL document CHEMBL4732242 (Eur J Med Chem, 2021)
